Experimental data reported in ChEMBL document CHEMBL1201862, “PubChem BioAssay data set” (2004).
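Where inhibition never reached the appropriate level, the endpoint shown equals the highest concentration tested. Otherwise, values were interpolated linearly from a five-concentration, 48-hour dose response in 96-well plates. At the GI50, growth is halved.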 The source made the active and inactive calls. Cut-off read from the data, not from the text of the source: active = GI50 up to about 1.1 µM and inactive = higher.

How the values were obtained:
Assay in all cases: inhibition of tumour cell growth, NCI panel, 48 h
[1] = test system: HL-60
[2] = test system: NCI-H460
[3] = test system: Malme-3M
[4] = test system: HOP-62
[5] = test system: T47D
[6] = test system: UACC-257
[7] = test system: OVCAR-5
[8] = test system: RXF 393
[9] = test system: TK-10
[10] = test system: SF-295
[11] = test system: SK-MEL-2
[12] = test system: U-251
[13] = test system: M14
[14] = test system: OVCAR-8
[15] = test system: ACHN
[16] = test system: NCI-H226
[17] = test system: HOP-92
[18] = test system: OVCAR-4
[19] = test system: SF-539
[20] = test system: SNB-75

Measured: GI50

Cc1cc(O)nc(/N=C(\N)Nc2ccc(Cl)cc2)n1
inactive: [1] > 100 µM | [2] > 100 µM | [3] > 100 µM | [4] > 100 µM | [5] > 100 µM | [6] > 100 µM | [7] > 100 µM | [8] > 100 µM | [9] > 100 µM | [10] > 100 µM | [11] > 100 µM | [12] > 100 µM | [13] > 100 µM | [14] > 100 µM | [15] > 100 µM | [16] > 100 µM | [17] > 100 µM

O=C1OC(=O)C(=C\c2ccc3c(c2)OCO3)/C1=C/c1ccc2c(c1)OCO2
inactive: [1] 44.8 µM | [2] > 100 µM | [3] > 100 µM | [4] > 100 µM | [5] > 100 µM | [6] > 100 µM | [7] > 100 µM | [8] > 89.1 µM | [9] > 100 µM | [10] > 100 µM | [11] > 100 µM | [12] > 80.7 µM | [13] > 100 µM | [14] > 84.5 µM | [15] > 100 µM | [18] > 100 µM | [19] > 100 µM | [16] > 93.5 µM | [17] > 100 µM

O=C(c1ccccc1)C(C(=O)c1ccccc1)c1nc2ccccc2sc1=O
inactive: [1] > 25 µM | [2] 11.4 µM | [3] 9.53 µM | [4] 9.59 µM | [5] > 25 µM | [6] > 25 µM | [7] > 25 µM | [8] > 25 µM | [9] 16.9 µM | [10] 10.1 µM | [11] 13.5 µM | [12] 5.73 µM | [13] 15.8 µM | [14] 9.29 µM | [15] 9.84 µM | [18] 9.71 µM | [19] 17.1 µM | [16] 7.08 µM | [17] 2.72 µM

CC(=O)OCCCOCn1c(Cc2ccccc2)c(C)c(=O)[nH]c1=O
inactive: [20] > 100 µM | [2] > 100 µM | [3] > 100 µM | [4] > 100 µM | [5] > 100 µM | [6] > 100 µM | [7] > 100 µM | [8] > 100 µM | [9] > 100 µM | [10] > 100 µM | [11] > 100 µM | [12] > 100 µM | [13] > 100 µM | [14] > 100 µM | [15] > 100 µM | [18] > 100 µM | [19] > 100 µM | [16] > 100 µM | [17] > 100 µM

Cc1ccc(S(=O)(=O)N/N=C2/CCCOC2)cc1
inactive: [1] > 100 µM | [2] > 100 µM | [3] > 100 µM | [4] > 100 µM | [5] > 100 µM | [6] > 100 µM | [7] > 100 µM | [8] > 100 µM | [9] > 100 µM | [10] > 100 µM | [11] > 100 µM | [12] > 100 µM | [13] > 100 µM | [14] > 100 µM | [15] > 100 µM | [18] > 100 µM | [19] > 100 µM | [16] > 100 µM | [17] > 100 µM

Cc1cn2c(/C=C3/C(=O)Nc4ccccc43)c(-c3ccccc3)nc2s1
inactive: [1] > 100 µM | [20] 25.8 µM | [2] 78.2 µM | [3] > 100 µM | [4] 38.5 µM | [5] 38.9 µM | [6] > 100 µM | [7] > 100 µM | [8] 27 µM | [9] 22.4 µM | [10] 37.5 µM | [11] 28.1 µM | [12] 29.3 µM | [13] > 100 µM | [14] 54.3 µM | [15] 32.2 µM | [19] 19.2 µM | [17] 36.5 µM

O=C1/C(=C\c2cccc(Oc3ccccc3)c2)SC(c2ccccc2)N1Cc1ccccc1 (stereo not given)
inactive: [1] 23.3 µM | [2] 33.3 µM | [3] 22.2 µM | [4] 29.1 µM | [5] 26.2 µM | [6] 26.6 µM | [7] 57.3 µM | [8] 20.1 µM | [9] 32.1 µM | [10] 35.3 µM | [11] 18.2 µM | [12] 18.4 µM | [13] 22.4 µM | [14] 22.4 µM | [15] 52.8 µM | [18] 31.6 µM | [19] 18.5 µM | [16] 22.6 µM | [17] 19 µM

Cc1ccc(SCC(CF)OCn2cc(F)c(=O)[nH]c2=O)cc1 (stereo not given)
inactive: [1] 76.9 µM | [2] > 100 µM | [3] > 100 µM | [4] > 100 µM | [5] > 100 µM | [6] > 100 µM | [7] > 100 µM | [8] > 100 µM | [9] > 100 µM | [10] > 100 µM | [11] > 100 µM | [12] > 100 µM | [13] > 100 µM | [14] > 100 µM | [15] > 100 µM | [18] > 100 µM | [19] > 100 µM | [17] > 100 µM

CCOC(=O)c1ccc(Nc2nc3cc(C(F)(F)F)ccc3nc2C(=O)OCC)cc1
inactive: [1] > 100 µM | [20] 40.2 µM | [2] 74.3 µM | [4] 22 µM | [5] 69.3 µM | [6] > 100 µM | [7] > 100 µM | [8] > 100 µM | [9] 26.4 µM | [10] 38.3 µM | [12] 19.7 µM | [13] 34.2 µM | [14] 51.6 µM | [15] 42 µM | [19] 50.9 µM | [17] 50 µM

O=C(CCl)N1CCN(c2ccccn2)CC1
inactive: [1] 24.3 µM | [20] > 10 µM | [2] 19.3 µM | [3] 16.8 µM | [4] 22.7 µM | [5] 13.2 µM | [6] 30.3 µM | [7] 20.7 µM | [8] 23.4 µM | [9] 19.5 µM | [10] > 10 µM | [12] 17.9 µM | [13] 16.6 µM | [14] 26.2 µM | [15] 31.6 µM | [18] 15.6 µM | [17] 21.3 µM

CC(=O)Nc1cccc(N2C(=O)/C(=C\c3cccc(Oc4ccccc4)c3)SC2c2ccccc2)c1 (stereo not given)
inactive: [1] 36.6 µM | [2] > 100 µM | [3] > 100 µM | [4] > 100 µM | [5] 78.7 µM | [6] > 100 µM | [7] > 100 µM | [8] 27.7 µM | [9] 97.5 µM | [10] > 100 µM | [11] > 100 µM | [12] 35.5 µM | [13] > 100 µM | [14] 92.5 µM | [15] 99.8 µM | [18] 53.5 µM | [19] 38.4 µM | [16] > 100 µM | [17] 32.5 µM
